Read-outs that look alike come from different tables or passages of the source. Bridge positions count the residues as written; N and C are the ends. Peptide text beside a SMILES is read from it.
Columns and labels:
[1] = Isothermal titration calorimetry (ITC), peptides and LPS; assay type: binding; details: for interaction with LPS (heat release): 1 mg/mL peptide, 10 μg/mL LPS, 25 °C, repeated three times
Method: Interactions between peptides and LPS were monitored using a MicroCal ITC200 system (Malvern, UK) at 25 °C. The concentration of the peptides in the syringe was 1 mg/mL (40 μL). LPS was prepared in sterile water at a concentration of 10 μg/mL (300 μL per cell). Twenty injections (0.2 μL for the first injection and 2 μL for the remaining injections) were applied at 120 s intervals and at a stirring rate of 1,000 rpm. The data were processed by subtracting the baseline heat release from titrations of sterile water into LPS and from 20 mM DTT into LPS. The experiment was repeated three times.

[2] = system: E. coli ML35 (ATCC 43827); assay: virtual colony count assay, E. coli ML35; assay type: cell-based; details: for LD50 (Lethal Dose that kills 50% of bacteria) / LD90 (Lethal Dose that kills 90% of bacteria): ATCC 43827 E. coli ML35, 1 × 10^6 CFU/mL, 10 mM sodium phosphate buffer pH 7.4, 1% TSB, 37 °C, 1 h, duplicate, repeated three times
Method: (§1) Figure 3 Reduction attenuates the antibacterial activity of HD5OX against Gram-negative bacteria. […] Peptides were prepared in sterile water, with the final concentrations of 0.78, 1.56, 3.13, 6.25, 12.5, and 25 μg/mL. […] Zero survival points are not plotted.

[3] = system: Salmonella enterica serovar Typhimurium (ATCC 14028); assay: virtual colony count assay, S. Typhimurium; assay type: cell-based; details: for LD50 (Lethal Dose that kills 50% of bacteria) / LD90 (Lethal Dose that kills 90% of bacteria): ATCC 14028 S. Typhimurium, 1 × 10^6 CFU/mL, 10 mM sodium phosphate buffer pH 7.4, 1% TSB, 37 °C, 1 h, duplicate, repeated three times
Method: as §1

[4] = Circular dichroism (CD) spectroscopy; assay type: physicochemical; details: 27 °C; for CD secondary structure in the presence of LPS: 100 μg/mL peptide, 100 μg/mL LPS; for CD secondary structure in SDS micelles: 100 μg/mL, 20 mM SDS
Method: The conformational properties of the peptides were analyzed using an Applied Photophysics Chirascan instrument at 27 °C. A cell with a 1-mm path length was utilized. The CD spectra were obtained from 190–280 nm at 1 nm intervals. The time-per-point was 0.5 s, and the scanning time was approximately 73 s. Peptides (100 μg/mL, 250 μL) prepared in sterile water were examined in the presence of 20 mM sodium dodecyl sulfate (SDS) and 100 μg/mL LPS. Before scanning, peptides were incubated with SDS and LPS at room temperature for 1 h. The data obtained from three independent scans were averaged and smoothed by Pro-Data Chirascan software (version 4.1).

[5] = Biolayer interferometry (BLI), binding to lipid A; details: for Kd / Koff (dissociation rate constant) / Kon (association rate constant): BLI, 1:1 fit
Method: The recruitment of peptides to lipid A (Sigma L5399) was determined using Forte Bio’s “Octet Red 96” BLI (Pall Life Sciences, US). The amine-reactive second-generation (AR2G) biosensor was activated using 20 mM 1-ethyl-3-[3-dimethylaminopropy] carbodiimide hydrochloride (EDC, Sigma E1769) and 10 mM sulfo-N-hydroxysulfosuccinimide (s-NHS, Sigma 56485). Lipid A was immobilized on biosensors at the concentration of 20 μg/mL until the binding curves reached the plateau. Ethanolamine (1 M, pH 8.5) was used to quench the immobilization. Peptides were prepared in the running buffer (5 mM sodium phosphate buffer, pH 7.4), with concentrations of 200, 400, 600, 800, 1000, and 1200 nM, respectively. Association and disassociation, 5 min for each, were carried out at a shaking speed of 600 rpm. Biosensors were regenerated by 0.1 M Glycine-HCl buffer (pH 2.0). […] The binding thicknesses were processed using Fortebio Data Analysis 7.0 software, in which the methods for y-axis alignment, inter-step correction, and Savitzky-Golay filtering were specified. The equilibrium dissociation constant (KD), calculated as the ratio of the dissociation rate constant (Koff) to the association rate constant (Kon), was generated by a 1:1 fitting model. This experiment was repeated three times.
^a The binding kinetics between peptides and bacterial lipid A were determined with a biolayer interferometry (BLI). Lipid A was immobilized on AR2G biosensors at the concentration of 20 μg/mL until the binding curves reached the plateau. Peptides were prepared in the running buffer (5 mM sodium phosphate buffer, pH 7.4), with concentrations of 200, 400, 600, 800, 1000, and 1200 nM, respectively. Association and disassociation, 5 min for each, were carried out at a shaking speed of 600 rpm. The bindings were processed using Fortebio Data Analysis 7.0 software, which specifies the methods for y-axis alignment, inter-step correction, reference subtraction, and Savitzky-Golay filtering. The experiment was repeated three times.
^b Kon, the association rate constant; Koff, the dissociation rate constant; KD, the equilibrium dissociation constant; R^2, the fitting correlation coefficient. These parameters were generated by a 1:1 fitting model. KD is calculated as the ratio of Koff to Kon. […]

[6] = virtual colony count, 0.78-25 μg/mL, HD5OX vs HD5RED
[7] = AR2G biosensor, 5 mM sodium phosphate buffer pH 7.4, 200-1200 nM, mean ± SD from three independent assays, read-out: KD (equilibrium dissociation constant) binding to lipid A
[8] = lipid A, repeat 1th, read-out: KD
[9] = lipid A, repeat 2th, read-out: KD
[10] = lipid A, repeat 3th, read-out: KD

Row | SMILES | interaction with LPS (heat release) [1] | LD50 (Lethal Dose that kills 50% of bacteria) [2] | LD90 (Lethal Dose that kills 90% of bacteria) [2] | LD50 (Lethal Dose that kills 50% of bacteria) [3] | LD90 (Lethal Dose that kills 90% of bacteria) [3] | CD secondary structure in the presence of LPS [4] | CD secondary structure in SDS micelles [4] | Kd [5, 7] | Koff (dissociation rate constant) ([5]; lipid A, repeat 1th) | Kon (association rate constant) ([5]; lipid A, repeat 1th) | Kd [5, 8] | Koff (dissociation rate constant) ([5]; lipid A, repeat 2th) | Kon (association rate constant) ([5]; lipid A, repeat 2th) | Kd [5, 9] | Koff (dissociation rate constant) ([5]; lipid A, repeat 3th) | Kon (association rate constant) ([5]; lipid A, repeat 3th) | Kd [5, 10] | also measured
1 | CC[C@H](C)[C@@H]1NC(=O)[C@H](CCC(=O)O)NC(=O)[C@@H]2CSSC[C@@H]3NC(=O)[C@H](Cc4ccc(O)cc4)NC(=O)[C@@H](NC(=O)[C@@H](NC(=O)[C@H](C)N)[C@@H](C)O)CSSC[C@@H](C(=O)N[C@@H](CCCNC(=N)N)C(=O)O)NC(=O)[C@H](CSSC[C@H](NC(=O)[C@H](CCCNC(=N)N)NC(=O)CNC(=O)[C@H]([C@@H](C)O)NC(=O)[C@H](CCCNC(=N)N)NC3=O)C(=O)N[C@@H](C)C(=O)N[C@@H]([C@@H](C)O)C(=O)N[C@@H](CCCNC(=N)N)C(=O)N[C@@H](CCC(=O)O)C(=O)N[C@@H](CO)C(=O)N[C@@H](CC(C)C)C(=O)N[C@@H](CO)C(=O)NCC(=O)N[C@@H](C(C)C)C(=O)N2)NC(=O)[C@H](CC(C)C)NC(=O)[C@H](CCCNC(=N)N)NC(=O)[C@H](Cc2ccc(O)cc2)NC(=O)[C@H](CC(C)C)NC(=O)[C@H](CCCNC(=N)N)NC(=O)CNC(=O)[C@H](CO)NC1=O [HD5OX, Oxidized human defensin 5] (H-ATCYCRTGRCATRESLSGVCEISGRLYRLCCR-OH; disulfide 3-31, 5-20, 10-30; N-terminus and C-terminus assumed) | exothermically interacted with 10 μg/mL of LPS | 4.7 ± 0.8 µg/mL | 11.6 ± 1.7 µg/mL | 4.6 ± 0.5 µg/mL | 9.6 ± 0.7 µg/mL | slightly red-shifted | maintained the β-sheet structures | 0.075 ± 0.024 µM | 0.000324 s⁻¹ | 6320 M⁻¹ s⁻¹ | 0.0513 µM | 0.000536 s⁻¹ | 5410 M⁻¹ s⁻¹ | 0.0991 µM | 0.000509 s⁻¹ | 6830 M⁻¹ s⁻¹ | 0.0745 µM | antibacterial action against E. coli ML35, relative [2, 6]: more potent action against these bacteria than HD5RED; antibacterial action against S. Typhimurium, relative [3, 6]: more potent action against these bacteria than HD5RED
2 | CC[C@H](C)[C@H](NC(=O)[C@H](CCC(=O)O)NC(=O)[C@H](CS)NC(=O)[C@@H](NC(=O)CNC(=O)[C@H](CO)NC(=O)[C@H](CC(C)C)NC(=O)[C@H](CO)NC(=O)[C@H](CCC(=O)O)NC(=O)[C@H](CCCNC(=N)N)NC(=O)[C@@H](NC(=O)[C@H](C)NC(=O)[C@H](CS)NC(=O)[C@H](CCCNC(=N)N)NC(=O)CNC(=O)[C@@H](NC(=O)[C@H](CCCNC(=N)N)NC(=O)[C@H](CS)NC(=O)[C@H](Cc1ccc(O)cc1)NC(=O)[C@H](CS)NC(=O)[C@@H](NC(=O)[C@H](C)N)[C@@H](C)O)[C@@H](C)O)[C@@H](C)O)C(C)C)C(=O)N[C@@H](CO)C(=O)NCC(=O)N[C@@H](CCCNC(=N)N)C(=O)N[C@@H](CC(C)C)C(=O)N[C@@H](Cc1ccc(O)cc1)C(=O)N[C@@H](CCCNC(=N)N)C(=O)N[C@@H](CC(C)C)C(=O)N[C@@H](CS)C(=O)N[C@@H](CS)C(=O)N[C@@H](CCCNC(=N)N)C(=O)O [HD5RED] (H-ATCYCRTGRCATRESLSGVCEISGRLYRLCCR-OH) | heat release was higher than that of HD5OX | 9.9 ± 0.6 µg/mL | 22.5 ± 2.3 µg/mL | 7.9 ± 1.1 µg/mL | 19.5 ± 1.6 µg/mL | adopted a different conformation with two negative ellipticities at 217 nm and 206 nm | transformed into a peptide containing α-helical structures | 0.14 ± 0.03 µM | 0.000389 s⁻¹ | 2140 M⁻¹ s⁻¹ | 0.182 µM | 0.000337 s⁻¹ | 2570 M⁻¹ s⁻¹ | 0.131 µM | 0.000264 s⁻¹ | 2250 M⁻¹ s⁻¹ | 0.117 µM | LPS-binding, relative ([1]; weight ratios ≥8.0, vs HD5OX): much stronger than that of HD5OX; fold of concentration needed to inactivate 90% relative to HD5OX ([2]; E. coli ML35 ATCC 43827, higher than HD5OX): 1.9 -fold; fold of concentration needed to inactivate 90% relative to HD5OX ([3]; S. Typhimurium ATCC 14028, higher than HD5OX): 2.0 -fold; CD secondary structure in aqueous ([4]; 100 μg/mL in sterile water, vs HD5OX): less effective in forming rigid β-sheet structures; recruitment to lipid A ([5]; 1000 nM, 5 mM sodium phosphate buffer, HD5RED vs HD5OX): fewer HD5RED than HD5OX molecules were recruited to the lipid A; fold KD relative to HD5OX ([5]; lipid A, higher than HD5OX): 1.9 -fold

From publication PMC4785407, “Reduction Impairs the Antibacterial Activity but Benefits the LPS Neutralization Ability of Human Enteric Defensin 5” (Scientific Reports, 2016)
